This note sets out measurements from ChEMBL document CHEMBL3352474, “Design, synthesis and biological evaluation of FLT3 covalent inhibitors with a resorcylic acid core” (Bioorg Med Chem, 2014).

Bounds are passed on as bounds.

The nature of series [1]: Antiproliferative activity against human THP1 cells assessed as growth inhibition at 5 uM after 72 hrs by luminescent cell viability assay. As to conditions: THP-1, 72 h, read-out: GI. The series is classed as functional.
A short description of series [2]: Antiproliferative activity against human THP1 cells after 72 hrs by luminescent cell viability assay. To be noted: THP-1, 72 h. The series is classed as functional, cell-based.
Series [3] relates to MV4-11. In words: Antiproliferative activity against human MV4-11 cells assessed as growth inhibition at 5 uM after 72 hrs by luminescent cell viability assay. The series is classed as functional. To be noted: MV4-11, 72 h, read-out: GI.
Series [4] relates to MV4-11. In words: Antiproliferative activity against human MV4-11 cells after 72 hrs by luminescent cell viability assay. The series is classed as functional, cell-based. As to conditions: MV4-11, 72 h.
Series [5] deals with T1, Receptor-type tyrosine-protein kinase FLT3 (Homo sapiens, UniProt P36888).
T1 sequence (P36888 whole entry): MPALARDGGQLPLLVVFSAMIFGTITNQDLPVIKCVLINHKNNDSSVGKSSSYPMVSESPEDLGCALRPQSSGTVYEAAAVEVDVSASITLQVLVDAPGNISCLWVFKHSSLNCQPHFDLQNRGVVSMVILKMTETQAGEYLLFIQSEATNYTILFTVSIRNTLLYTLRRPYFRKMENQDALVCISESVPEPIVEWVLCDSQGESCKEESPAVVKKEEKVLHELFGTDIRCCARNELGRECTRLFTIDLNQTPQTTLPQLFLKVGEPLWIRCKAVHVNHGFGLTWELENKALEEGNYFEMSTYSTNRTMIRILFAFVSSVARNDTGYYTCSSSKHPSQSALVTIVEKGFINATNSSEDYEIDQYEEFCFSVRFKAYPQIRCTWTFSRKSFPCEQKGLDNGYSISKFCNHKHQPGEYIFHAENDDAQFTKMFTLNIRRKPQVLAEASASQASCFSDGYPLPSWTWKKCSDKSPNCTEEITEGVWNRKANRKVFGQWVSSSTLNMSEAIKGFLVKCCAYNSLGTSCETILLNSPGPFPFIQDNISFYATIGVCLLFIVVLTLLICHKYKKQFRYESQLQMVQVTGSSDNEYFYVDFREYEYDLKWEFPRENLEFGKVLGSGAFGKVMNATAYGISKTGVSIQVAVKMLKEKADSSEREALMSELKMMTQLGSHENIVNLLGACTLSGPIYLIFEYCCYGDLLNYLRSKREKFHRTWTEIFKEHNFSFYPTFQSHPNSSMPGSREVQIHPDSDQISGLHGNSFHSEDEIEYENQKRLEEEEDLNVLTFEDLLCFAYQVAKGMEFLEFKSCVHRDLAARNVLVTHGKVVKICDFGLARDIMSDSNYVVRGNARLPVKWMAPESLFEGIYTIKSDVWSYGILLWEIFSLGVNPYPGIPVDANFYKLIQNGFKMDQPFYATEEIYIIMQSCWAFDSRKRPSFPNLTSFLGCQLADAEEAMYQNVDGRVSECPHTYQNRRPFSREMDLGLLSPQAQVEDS
In words: Inhibition of recombinant FLT3 (unknown origin) by TR-FRET assay.

In series [6] the target is Receptor-type tyrosine-protein kinase FLT3 (Homo sapiens, UniProt P36888, D835Y). In words: Inhibition of recombinant FLT3 D835Y mutant (unknown origin) by TR-FRET assay. (In general: In TR-FRET formats the signal depends on donor and acceptor labels being close together.)
In series [7] the target is Receptor-type tyrosine-protein kinase FLT3 (Homo sapiens, UniProt P36888, ITD). In words: Inhibition of recombinant FLT3 ITD mutant (unknown origin) by RBC kinase assay.
Series [8] can be described thus: Antiproliferative activity against human HL60 cells assessed as growth inhibition at 5 uM after 72 hrs by luminescent cell viability assay. As to conditions: HL-60, 72 h, read-out: GI. The series is classed as functional.
Series [9] can be described thus: Antiproliferative activity against human HEK293T cells assessed as growth inhibition at 5 uM after 72 hrs by luminescent cell viability assay. As to conditions: read-out: GI. The series is classed as cell-based, HEK-293T.
Series [10] concerns K562. Description: Antiproliferative activity against human K562 cells assessed as growth inhibition at 5 uM after 72 hrs by luminescent cell viability assay. The series is classed as functional. As to conditions: K562, 72 h, read-out: GI.
Series [11] concerns the target MAP kinase-interacting serine/threonine-protein kinase 1 (Homo sapiens) (UniProt Q9BUB5). In words: Inhibition of MNK1 (unknown origin) at 10 uM.
Series [12] deals with MAP kinase-interacting serine/threonine-protein kinase 2 (Homo sapiens) (UniProt Q9HBH9). Description: Inhibition of MNK2 (unknown origin) at 10 uM.
MAP kinase-interacting serine/threonine-protein kinase 2 (Homo sapiens), sequence (Q9HBH9 whole entry, looked up): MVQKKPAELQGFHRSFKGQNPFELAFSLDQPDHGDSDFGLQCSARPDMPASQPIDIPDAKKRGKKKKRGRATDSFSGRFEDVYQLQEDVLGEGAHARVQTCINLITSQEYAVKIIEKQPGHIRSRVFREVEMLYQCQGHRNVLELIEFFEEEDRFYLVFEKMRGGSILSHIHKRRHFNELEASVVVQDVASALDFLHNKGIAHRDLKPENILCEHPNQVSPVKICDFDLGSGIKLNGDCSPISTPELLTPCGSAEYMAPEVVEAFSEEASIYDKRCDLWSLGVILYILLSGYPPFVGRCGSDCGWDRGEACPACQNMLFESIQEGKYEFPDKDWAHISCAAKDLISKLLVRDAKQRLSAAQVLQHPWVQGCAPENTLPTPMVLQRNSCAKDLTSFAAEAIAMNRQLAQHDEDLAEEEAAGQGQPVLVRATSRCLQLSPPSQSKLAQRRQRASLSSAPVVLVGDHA
Series [13] addresses Receptor-type tyrosine-protein kinase FLT3 (Homo sapiens) (UniProt P36888).
Description: Binding affinity to FLT3 (unknown origin) assessed as dissociation half life

MAP kinase-interacting serine/threonine-protein kinase 1 (Homo sapiens), sequence (Q9BUB5 whole entry, looked up): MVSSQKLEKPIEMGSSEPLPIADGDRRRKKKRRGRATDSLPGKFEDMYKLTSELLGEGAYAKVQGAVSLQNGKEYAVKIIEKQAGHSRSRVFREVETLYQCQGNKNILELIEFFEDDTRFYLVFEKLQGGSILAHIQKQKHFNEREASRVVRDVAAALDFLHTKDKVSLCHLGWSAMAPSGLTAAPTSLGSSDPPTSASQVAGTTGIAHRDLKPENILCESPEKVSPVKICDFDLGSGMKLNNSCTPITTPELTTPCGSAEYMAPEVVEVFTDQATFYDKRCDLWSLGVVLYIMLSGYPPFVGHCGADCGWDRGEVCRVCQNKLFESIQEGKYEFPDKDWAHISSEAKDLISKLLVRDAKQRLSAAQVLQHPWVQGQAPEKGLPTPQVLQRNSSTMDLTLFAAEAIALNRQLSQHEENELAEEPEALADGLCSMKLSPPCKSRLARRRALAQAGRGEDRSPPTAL

For orientation: IC50 means the concentration that inhibits the measured activity by half. With `CC(C)OC(=O)c1c(O)cc(OCCCN2CCOCC2)cc1/C=C/CN1C(=O)C=CC1=O`, the inhibition of growth at 5 µM was found to be 62.5% in series [1], 99.8% in series [3], 89.1% in series [8] and 95.9% in [10]. Besides, the IC50 in series [2] is 7.88 µM; in series [4], 1.89 µM; in series [5], 0.15 µM; in series [6], 0.94 µM; in series [7], 0.98 µM. For the same compound, the inhibition at 72 h, 5 µM in series [9] was 38.8%. For the same compound, the inhibition was determined as 8% in [11] and 3.1% in [12].
Consider `COc1cc(O)c(C(=O)OCC2CCCCC2)c(/C=C/CN2C(=O)C=CC2=O)c1`, for which the inhibition of growth at 5 µM was 5.9% in [1], 99.8% in [3], 71% in [8] and 85.1% in series [10]. The IC50 in series [2] is 7.71 µM; in series [4] it was 1.97 µM; in series [5] it was 2.69 µM; in [6], 2.1 µM; in [7], above 30 µM. Besides, in [9], the inhibition at 72 h, 5 µM was found to be 6.9%. For the same compound, the inhibition turned out to be 9.7% in [11] and 0% in series [12].
Take `C=CC(=O)NC/C=C/c1cc(OCCc2ccc(F)cc2)cc(O)c1C(=O)OC(C)C`: the inhibition of growth at 5 µM was determined as 23.2% in series [1], 61.8% in [3], 12.2% in series [8] and 18.5% in series [10]. The IC50 was above 10 µM in series [2]; 4.45 µM in [4]; above 30 µM in series [5]; above 30 µM in series [6]; 8.31 µM in [7]. For the same compound, the inhibition at 72 h, 5 µM in [9] is 25.8%. Also, the inhibition in [11] was determined as 5.6%; in [12], 1.1%.
`CCN(CC)CCNC(=O)c1c(C)[nH]c(/C=C2\C(=O)Nc3ccc(F)cc32)c1C` displayed a T1/2 in [13] of 11.3 min.
For `CCN(CC)C/C=C/C(=O)NC/C=C/c1cc(OCCc2ccc(F)cc2)cc(O)c1C(=O)OC(C)C`, the inhibition of growth at 5 µM worked out at 25.7% in [1], 84.9% in series [3], 36.8% in [8] and 49.8% in series [10]. Also, the IC50 in series [2] was above 10 µM; in [4], 4.04 µM; in [5], above 30 µM; in series [6] it was above 30 µM; in series [7] it was 1.11 µM. The inhibition at 72 h, 5 µM in [9] was 28.5%. The inhibition in series [11] was determined as 7.8%; in series [12], 0.8%.
Consider `CC(C)OC(=O)c1c(O)cc(OCCN2CCOCC2)cc1CCCN1C(=O)C=CC1=O`, for which the inhibition of growth at 5 µM in series [1] came to 81.5%; in series [3], 99.8%; in [8], 98.9%; in [10], 99.3%. The IC50 in series [2] is 5.43 µM; in series [4] it was 3.51 µM; in [5], 0.58 µM; in series [6] it was 0.81 µM; in series [7] it was 8.87 µM. Moreover, the inhibition at 72 h, 5 µM in series [9] is 13.3%. For the same compound, the inhibition was determined as 8.8% in series [11] and 1.8% in series [12].
In the case of `COc1cc(/C=C/CN2C(=O)C=CC2=O)c(C(=O)OC(C)C)c(OC(C)=O)c1`, the inhibition of growth at 5 µM in series [1] amounted to 3.3%; in [3], 99.8%; in series [8] it was 87.9%; in series [10], 99.2%. Besides, the IC50 in [2] amounted to 10.4 µM; in series [4], 2.15 µM; in series [5] it was 3.37 µM; in series [6], 3.61 µM; in series [7], 21.8 µM. Further, the inhibition at 72 h, 5 µM in series [9] is 47.4%. The inhibition in [11] was 6.7%; in [12], 5%.
For `COc1cc(O)c(C(=O)OC(C)C)c(/C=C/CN2C(=O)C=CC2=O)c1`, the inhibition of growth at 5 µM in [1] was determined as 41.8%; in [3], 99.8%; in series [8], 65.7%; in [10] it was 95.7%. In addition, the IC50 amounted to 7.32 µM in series [2]; 1.73 µM in series [4]; 0.54 µM in series [5]; 1.34 µM in [6]; 9.79 µM in series [7]. Moreover, the inhibition at 72 h, 5 µM in [9] is 8%. Further, the results for the inhibition in [11] and in [12] were 5.4% and 4.1%, respectively.
As for `COc1cc(O)c(C(=O)OCC(C)c2ccccc2)c(/C=C/CN2C(=O)C=CC2=O)c1` (centres undefined), the inhibition of growth at 5 µM in series [1] turned out to be 0%; in series [3], 99%; in series [8] it was 56%; in series [10] it was 74.9%. In addition, the IC50 in [2] was above 10 µM; in [4], 3.38 µM; in series [5], 3.01 µM; in [6] it was 5.2 µM; in series [7] it was above 30 µM. Moreover, the inhibition at 72 h, 5 µM in series [9] came out at 0%. Besides, the inhibition in series [11] is 8.6%; in [12], 0%.
Regarding `C=CS(=O)(=O)NC/C=C/c1cc(OC)cc(O)c1C(=O)OC(C)C`, the inhibition of growth at 5 µM in series [1] was 19.9%; in series [3], 72.3%; in [8], 16.6%; in series [10], 36.2%. Also, the 50% inhibitory concentration (IC50) in series [2] came out at 14.7 µM; in series [4] it was 4.66 µM; in series [5], 10.8 µM; in series [6], 12 µM; in [7], 2.25 µM. Further, the inhibition at 72 h, 5 µM in series [9] is 0.1%. Besides, the inhibition in [11] was determined as 5.6%; in series [12], 13.9%.
